According to patent US5747503A, “Selective inhibitors of biogenic amine transporters” (priority 1996, dated 1998):
Entries after “also recorded” stand apart in the source; their conditions may differ. Like-named read-outs stand apart in the source and are kept apart here.

Key:
[^3 H]DA uptake = Synaptosomal [^3 H]DA uptake inhibition; type: biochemical, rat; conditions: for IC50: Table 2, nM ± SD, rat striatum synaptosomes
Method: (§1) Synaptosomal uptake assays were carried out as described (Rothman et al. (1993), supra). Briefly, synaptosomes were prepared by homogenization of rat striatum (for [^3 H]DA reuptake) or whole rat brain minus cerebellum (for [^3 H]5-HT reuptake) in ice-cold 10% sucrose, using a Potter-Elvehjem homogenizer. After a 1000×g centrifugation for 10 min at 4° C., the supernatants were retained on ice. The uptake assays were initiated by the addition of 100 μl of synaptosomes to 12×75 mm polystyrene test tubes, which were prefilled with 750 μl of [^3 H]ligand (2 nM [^3 H]5-HT or 5 nM [^3 H]DA) in a Krebs-phosphate buffer (pH 7.4), which contained ascorbic acid (1 mg/ml) and pargyline (50 μM) (buffer), 100 μl of test drugs made up in buffer containing 1 mg/ml bovine serum albumin, and 50 μl of buffer. The [^3 H]5-HT reuptake experiments were conducted in the presence of 100 nM nomifensine and […] GBR12935 in order to block any possible reuptake into NE and DA nerve terminals. […] The nonspecific uptake of each [^3 H]ligand was measured by incubations in the presence of 1 μM GBR12909 ([^3 H]DA) and 10 μM fluoxetine ([^3 H]5-HT). The incubations were terminated after a 15 min ([^3 H]DA) or 30 min ([^3 H]5-HT) incubation at 25° C. by adding 4 ml of wash buffer (10 mM TRIS-HCl, pH 7.4 containing 0.9% NaCl at 25° C.), followed by rapid filtration over Whatman GF/B filters and one additional wash cycle. […] The Krebs-phosphate buffer contained 154.5 mM NaCl, 2.9 mM KCl, 1.1 mM CaCl2, 0.83 mM MgCl2 and 5 mM glucose. The tritium retained on the filters was counted, in a Taurus beta counter, after an overnight extraction into ICN Cytoscint cocktail.
(§2) Inhibition curves were fit to the two parameter logistic equation for the best-fit estimates of the IC50 using nonlinear least squares curve fitting methods as previously described (Rothman et al. (1993), supra); Jones, S. M. and Rogawski, M. A. Mol. Neuropharmacol. 2: 303-310 (1992)).
(§3) Synaptosomal uptake and ligand binding assays were conducted as described
(§4) above. Preliminary experiments were conducted to determine the doserange
(§5) Each [^3 H] ligand was displaced
(§6) by 10 concentrations of test drug. The data of two experiments were
(§7) pooled, and fit to the two parameter logistic equation for the bestfit
(§8) estimates of the IC50 reported above.

[^3 H]5-HT uptake = Synaptosomal [^3 H]5-HT uptake inhibition; type: biochemical, rat; conditions: for IC50: Table 2, nM ± SD, whole rat brain minus cerebellum synaptosomes
Method: as §1, §2, §3, §4, §5, §6, §7, §8

PCP site 1 = experiment: [^3 H](+)-MK801 binding to PCP site 1; parameters: species or system guinea pig
Method: Large batches of frozen membranes were prepared with minor modifications of published procedures (Rothman, et al. (1989), supra). Twenty to thirty frozen guinea pig brains with cerebellum were thawed for 15 minutes and homogenized with a Polytron in ice-cold 5 mM Tris-HCl, pH 8.0 (10 ml/brain). The homogenate was centrifuged at 37,000×g for 10 minutes, and the pellet was washed by resuspension in the same volume of buffer followed by recentrifugation. The pellets were resuspended in an equal volume of 5 mM Tris-HCl, pH 8.0, and the concentration was adjusted to 50 mM by the addition of 1M Tris-HCl, pH 8.0. The homogenate was centrifuged for 10 min at 37,000×g. The pellets were then washed three times by resuspension and centrifugation using 50 mM Tris-HCl, pH 8.0. The final pellets were resuspended in the Tris-HCl buffer (0.5 ml/brain), pooled and 1 ml aliquots were distributed to microfuge tubes, which were stored at -70° for assay. […]
as §2
(§9) ^a The binding assays for PCP (site 2) and PCP (site 1) were conducte
(§10) as previously reported (Rothman, R. B., et al., In: Multiple Sigma and PC
(§11) Receptor Ligands: Mechanisms for Neuromodulation and Protection 307-330
(§12) (Domino, E. F. and Kamenka, J. M., eds., 1992) using [^3 H]TCP in the
(§13) presence of (+)MK801 for site 2 and [^3 HMK801 for site 1 except that

PCP site 2 = type: binding, guinea pig
Method: Large batches of frozen membranes were prepared with minor modifications of published procedures (Rothman, et al. (1989), supra). Twenty to thirty frozen guinea pig brains with cerebellum were thawed for 15 minutes and homogenized with a Polytron in ice-cold 5 mM Tris-HCl, pH 8.0 (10 ml/brain). The homogenate was centrifuged at 37,000×g for 10 minutes, and the pellet was washed by resuspension in the same volume of buffer followed by recentrifugation. The pellets were resuspended in an equal volume of 5 mM Tris-HCl, pH 8.0, and the concentration was adjusted to 50 mM by the addition of 1M Tris-HCl, pH 8.0. The homogenate was centrifuged for 10 min at 37,000×g. The pellets were then washed three times by resuspension and centrifugation using 50 mM Tris-HCl, pH 8.0. The final pellets were resuspended in the Tris-HCl buffer (0.5 ml/brain), pooled and 1 ml aliquots were distributed to microfuge tubes, which were stored at -70° for assay.
The [^3 H]TCP binding assay for PCP site 2 was conducted with minor modifications of published protocols (Rothman, et al. (1989), supra). Briefly, 12×75 mm polystyrene test tubes were prefilled with 100 μl of [^3 H]TCP (2 nM final concentration) in a protease inhibitor cocktail (PIC) containing 5000 nM (+) -MK801, 100 μl of distilled H2 O or drug (in distilled H2 0), 50 μl of buffer (5 mM Tris-HCL, pH 8.0), and 750 μl of membrane (0.5-1.0 mg/ml protein, in 5 mM Tris-HCl, pH 8.0). […] The protease inhibitor cocktail was composed of 25 μg/ml leupeptin, 25 μg/ml chymostatin, 0.1 mM EDTA, and 0.1 mM ethylene glycol-bis-(beta-aminoethyl-ether)-N,N,N',N'-tetraacetic acid (EGTA). The incubation time was 18-24 hours at 4° C. (steady state) in a final volume of 1 ml. Triplicate samples were filtered with an MR24 Brandel Cell Harvester and washed with two 5 ml aliquots of ice cold buffer. Whatman GF/B filters were presoaked in buffer containing 2% polyethylenimine. The tritium retained on the filters was measured using a Taurus scintillation counter at 44% efficiency after an overnight extraction into ICN Cytoscint cocktail. Non specific binding was determined using 10 μM of TCP. Protein was determine using the method of Lowry, et al., supra.
as §2, §9, §10, §11, §12, §13
the [^3 H]TCP assays were terminated after 18-24 hours of incubation

[1] = Table 1, [^3 H]TCP in presence of (+)MK801, 18-24 hours at 4° C.

Structure (SMILES)	[^3 H]DA uptake inhibition in words ([^3 H]DA uptake)	IC50 ([^3 H]DA uptake) [nM]	[^3 H]5-HT uptake inhibition in words ([^3 H]5-HT uptake)	IC50 ([^3 H]5-HT uptake) [nM]	IC50 (PCP site 1) [nM]	affinity for PCP site 1 in words (PCP site 1)	IC50 (PCP site 1; Table 1, [^3 H]MK801) [nM]	IC50 (PCP site 1; Table 2, nM ± SD) [nM]	IC50 (PCP site 1; Table 3, guinea pig membranes) [nM]	affinity/selectivity for PCP site 2 in words (PCP site 2)	IC50 (PCP site 2; [1]) [nM]	IC50 (PCP site 2; Table 2, nM ± SD) [nM]	IC50 (PCP site 2; Table 3, guinea pig membranes) [nM]	affinity/selectivity for PCP site 2 in words (PCP site 2; listed as 3b)	greater potency at PCP site 1 than PCP (PCP site 1; versus PCP) [fold]	IC50 (PCP site 2) [nM]
CN1[C@H](Cc2ccccc2)C[C@H]2Cc3ccccc3[C@H]21 (relative stereo) [RTI-4793-14, (2RS, 3aSR, 8aRS)-1,2,3a,8,8a-Hexahydro-2-benzyl-1-methyl-indeno[1,2-b]pyrrole]	moderate potency	547 ± 20	moderate potency	1020 ± 72	> 36000	low affinity	> 20000	> 36000	> 2000	high affinity and selectivity; also recorded: highest affinity for PCP site 2 of any of the drugs tested	37.9	37.9 ± 5.7	37.9 ± 5.7	potent and selective ligand for site 2	–	–
C[C@]12N[C@H](Cc3ccccc31)c1ccccc12 [(+)-MK801]	negligible affinity	> 10000	negligible affinity	> 4700	–	high affinity	4.58 ± 0.19	4.58 ± 0.19	–	–	15900	> 10000	–	–	25	–
CNC1CC(c2ccc(Cl)c(Cl)c2)c2ccccc21 (stereo not shown) [Indatraline]	potently inhibited; also recorded: potent inhibitor	3.23 ± 0.45	potently inhibited; also recorded: potent inhibitor	4.49 ± 0.21	> 100000	negligible affinity	–	> 100000	–	–	–	2530 ± 485	–	–	–	2500
c1ccc(C2(N3CCCCC3)CCCCC2)cc1 [PCP, phencyclidine]	–	347	–	1420	–	–	117 ± 3	117 ± 3	–	approximately the same potency at both sites; also recorded: moderate and about equal affinity for PCP site 1 and PCP site 2	92.4 ± 7	92.4 ± 7	–	–	–	–
